Target: T1, luciferase (Photinus pyralis, UniProt P08659)
T1 construct: purchased Analytical Luminescent Laboratories (ALL), Sparks, Maryland #2005
Experiment: luminescence from the reaction between ATP and a luciferase/luciferin reactant system loaded on reagent discs
Format: biochemical
Excerpt: FIG. 11 is a plot of relative luminescent intensity for reactant mixtures prepared with (♦) and without (▪) trehalose in the reactant loading solution for use with the device of FIG. 1.
FIG. 12 is a plot of luminescent intensity as a function of the concentration of trehalose in the reactant solution for use with the device of FIG. 1.
As discussed above, the inherent chemical and mechanical stability of the polymeric material is ideally suited for use as a medium on which to load the chemiluminescent reagents for the practice of the present invention. A number of commercial enterprises market luciferin-luciferase reagent kits for use in chemiluminescent reaction assays. One that the inventors have found to be particularly well suited for the practice of the present invention is the “Firelight®” luciferin-luciferase reagent kit provided by Analytical Luminescent Laboratories (ALL) of Sparks, Maryland. […] This provides for a greater intensity of luminescence, and faster reaction kinetics.
In the preparation of the reagent discs 48, the reactant concentrate is loaded, preferably drop-wise, onto the Merocel® CF50, obtained in pre-sterilized sheets. The coated sheets are then dried at ambient temperatures under a vacuum, and the reagent discs are cut from the sheets in an appropriate size and shape. Alternatively, discs may be cut first and then loaded with appropriate reagent solution. When loaded in such fashion with the reagent mixture, reagent discs, approximately 6 mm in diameter and approximately 1.5 mm in height, carry approximately 0.5 mg of the dried reactant mixture.
It is recognized in the prior art that trehalose will stabilize delicate materials while they are freeze-dried. Freeze drying as a technique was devised as being the only way certain sensitive materials can be handled. Ordinary drying at ambient or elevated temperature and at atmospheric or reduced pressure causes irreversible degradation of very many such substances, so much so that it has been accepted that sensitive proteins must not be dried at ambient temperature. […]

T1 sequence (P08659 whole entry): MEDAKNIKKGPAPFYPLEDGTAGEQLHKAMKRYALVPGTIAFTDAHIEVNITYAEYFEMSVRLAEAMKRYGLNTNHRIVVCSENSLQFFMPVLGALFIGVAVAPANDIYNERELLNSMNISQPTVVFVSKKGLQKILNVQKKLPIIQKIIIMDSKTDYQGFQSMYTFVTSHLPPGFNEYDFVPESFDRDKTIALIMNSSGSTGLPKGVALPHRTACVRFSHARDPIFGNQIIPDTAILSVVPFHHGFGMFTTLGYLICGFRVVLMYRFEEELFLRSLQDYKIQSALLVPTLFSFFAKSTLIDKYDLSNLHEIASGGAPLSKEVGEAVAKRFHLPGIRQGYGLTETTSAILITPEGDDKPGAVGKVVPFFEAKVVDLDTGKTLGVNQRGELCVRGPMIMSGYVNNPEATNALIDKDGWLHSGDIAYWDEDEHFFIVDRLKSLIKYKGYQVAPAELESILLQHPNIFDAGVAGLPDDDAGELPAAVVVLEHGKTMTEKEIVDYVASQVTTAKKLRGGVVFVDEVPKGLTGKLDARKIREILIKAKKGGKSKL

## OC[C@H]1O[C@H](O[C@H]2O[C@H](CO)[C@@H](O)[C@H](O)[C@H]2O)[C@H](O)[C@@H](O)[C@@H]1O [trehalose, a-D-glucopyranosyl-a-D-glucopyranoside]
6 mm×1.5 mm reagent disc, total loading approximately 4 mg including trehalose, FIG. 12
  observed luminescent intensities versus the same loading of reagents without the trehalose: more than twice
Reactant mixtures prepared with and without trehalose in the loading solution, FIG. 11
  stabilization effect on the chemiluminescent reactant mixture: measurable stabilization effect
Trehalose added to the loading solution at levels approaching its saturation solubility
  biochemical activity of the luciferase component of the reagent mixture: up to a doubling, or more
